Measurements: patent US11780812B2, “Oxopyridine derivatives useful as aminocarboxymuconate semialdehyde decarboxylase (ACMSD) inhibitors” (OrsoBio, Inc., priority 2016, dated 2023)

Target: human ACMSD (Homo sapiens (Human), UniProt Q8TDX5)
Assay: Human ACMSD-1 inhibitor assay (coupled 3-HAO/ACMSD, absorbance at 360 nm)
Details: read-out: hACMSD IC50; human ACMSD 6 μg/ml, 50 mM MES pH 6.0, 28° C., four-parameter dose-response fit
Method: A solution of 7.8 μg/ml 3-hydroxyanthranilate 3,4-dioxygenase (3-HAO) with protein dilution buffer (50 mM 4-Morpholineethanesulfonic acid “MES” pH 6.0) and a solution of 6 μg/ml Human 2-amino-3-carboxymuconate-6-semialdehyde decarboxylase (human ACMSD) with protein dilution buffer (50 mM MES pH 6.0) were prepared separately. A serial 2-fold dilution of test compounds, from 512 nM until 0.5 nM were prepared.
The plate was placed into a SpectraMax Plus 384 Microplate Reader, Molecular Devices with the temperature set to 28° C. The absorbance at 360 nm for 10 min with 10 seconds interval was monitored and recorded.
To a 96-well plate was added 50 μl of 6 μg/ml human ACMSD with series concentrations of the test compound. The absorbance was recorded at 360 nm for 10 min with 10 seconds interval. The data was analyzed in GraphPad Prism 6. A four-parameter dose-response curve was fitted. “Hill Slope” was constrained between −0.5 and −3, and such constrains was indicated when applied.

human ACMSD, sequence (Q8TDX5 whole entry): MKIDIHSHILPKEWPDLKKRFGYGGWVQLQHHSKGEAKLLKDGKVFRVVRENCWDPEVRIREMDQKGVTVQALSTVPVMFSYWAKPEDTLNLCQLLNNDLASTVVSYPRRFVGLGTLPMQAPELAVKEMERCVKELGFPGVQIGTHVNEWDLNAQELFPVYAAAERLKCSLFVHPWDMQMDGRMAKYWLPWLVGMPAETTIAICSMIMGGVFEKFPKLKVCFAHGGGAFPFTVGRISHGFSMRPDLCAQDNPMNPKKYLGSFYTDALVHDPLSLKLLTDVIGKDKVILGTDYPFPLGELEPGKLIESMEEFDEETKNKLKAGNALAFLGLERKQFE

| Compound | IC50 [nM] |
| --- | --- |
| Cc1cccc(-c2cc(=O)[nH]c(SCc3cccc(C(=O)O)c3)c2C#N)c1 [Ex. 25, 3-(((3-cyano-6-oxo-4-(m-tolyl)-1,6-dihydropyridin-2-yl)thio)methyl)benzoic acid] | 6 |
| N#Cc1c(-c2cccs2)cc(=O)[nH]c1SCc1cccc(-c2nnn[nH]2)c1 [Ex. 49, 2-((3-(1H-tetrazol-5-yl)benzyl)thio)-6-oxo-4-(thiophen-2-yl)-1,6-dihydropyridine-3-carbonitrile] | 6 |
| N#Cc1c(C(F)(F)F)cc(=O)[nH]c1SCc1cccc(C(=O)O)c1F [Ex. 22, 3-(((3-cyano-6-oxo-4-(trifluoromethyl)-1,6-dihydropyridin-2-yl)thio)methyl)-2-fluorobenzoic acid] | 830 |
| N#Cc1c(C(F)(F)F)cc(=O)[nH]c1SCC(=O)O [Ex. 1, 2-((3-cyano-6-oxo-4-(trifluoromethyl)-1,6-dihydropyridin-2-yl)thio)acetic acid] | 6 |
| N#Cc1c(-c2cccs2)cc(=O)[nH]c1SCc1cccc(C(=O)O)c1 [Ex. 23, 3-(((3-cyano-6-oxo-4-(thiophen-2-yl)-1,6-dihydropyridin-2-yl)thio)methyl)benzoic acid] | 7 |
| O=c1cc(C(F)(F)F)cc(SCc2nnn[nH]2)[nH]1 [Ex. 52, 6-((1H-tetrazol-5-yl)methylthio)-4-(trifluoromethyl)pyridin-2(1H)-one] | 130 |
| N#Cc1c(SCc2nnn[nH]2)[nH]c(=O)c(Cl)c1C(F)(F)F [Ex. 40, 2-((1H-tetrazol-5-yl)methylthio)-5-chloro-6-oxo-4-(trifluoromethyl)-1,6-dihydropyridine-3-carbonitrile] | 4 |
| CCCc1cc(=O)[nH]c(SCC(=O)O)c1C#N [Ex. 6, 2-((3-cyano-6-oxo-4-propyl-1,6-dihydropyridin-2-yl)thio)acetic acid] | 3050 |
| Cc1ccc(C(=O)O)cc1CSc1[nH]c(=O)cc(C(F)(F)F)c1C#N [Ex. 44, 3-((3-cyano-6-oxo-4-(trifluoromethyl)-1,6-dihydropyridin-2-ylthio)methyl)-4-methylbenzoic acid] | 510 |
| COc1c(C(F)(F)F)c(C#N)c(SCC(=O)O)[nH]c1=O [Ex. 46, 2-(3-cyano-5-methoxy-6-oxo-4-(trifluoromethyl)-1,6-dihydropyridin-2-ylthio)acetic acid] | 8 |
| N#Cc1c(-c2ccccc2)cc(=O)[nH]c1SCc1cccc(C(=O)O)n1 [Ex. 33, 6-(((3-cyano-6-oxo-4-phenyl-1,6-dihydropyridin-2-yl)thio)methyl)picolinic acid] | 190 |
